Test results: PubChem BioAssay (NCI)
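A five-concentration, 48-hour dose response in 96-well plates underlies each endpoint, interpolated linearly between surrounding concentrations. TGI marks complete inhibition of growth.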

Experiments:
Assay in all cases: DTP human tumour cell line panel, 48 h
UACC-257 melanoma = tested on: UACC-257 melanoma
K-562 leukemia = tested on: K-562 leukemia
MOLT-4 leukemia = tested on: MOLT-4 leukemia
RXF 393 renal = tested on: RXF 393 renal
SK-OV-3 ovarian = tested on: SK-OV-3 ovarian
KM12 colon = tested on: KM12 colon
NCI-H460 lung = tested on: NCI-H460 lung
HL-60(TB) leukemia = tested on: HL-60(TB) leukemia
HCC-2998 colon = tested on: HCC-2998 colon
SF-539 CNS = tested on: SF-539 CNS
SR leukemia = tested on: SR leukemia
SF-295 CNS = tested on: SF-295 CNS
MDA-N = tested on: MDA-N
T-47D breast = tested on: T-47D breast
HCT-15 colon = tested on: HCT-15 colon
U251 CNS = tested on: U251 CNS
OVCAR-5 ovarian = tested on: OVCAR-5 ovarian
MCF7 breast = tested on: MCF7 breast

SMILES | TGI (UACC-257 melanoma) [µM] | TGI (K-562 leukemia) [µM] | TGI (MOLT-4 leukemia) [µM] | TGI (RXF 393 renal) [µM] | TGI (SK-OV-3 ovarian) [µM] | TGI (KM12 colon) [µM] | TGI (NCI-H460 lung) [µM] | TGI (HL-60(TB) leukemia) [µM] | TGI (HCC-2998 colon) [µM] | TGI (SF-539 CNS) [µM] | TGI (SR leukemia) [µM] | TGI (SF-295 CNS) [µM] | TGI (MDA-N) [µM] | TGI (T-47D breast) [µM] | TGI (HCT-15 colon) [µM] | TGI (U251 CNS) [µM] | TGI (OVCAR-5 ovarian) [µM] | TGI (MCF7 breast) [µM]
CC(C)C1C(=O)NC(CO)Cc2c[nH]c3c(C(c4c[nH]c5ccccc45)C(O)CO)ccc(c23)N1C (centres undefined) | > 100 | > 100 | > 100 | > 100 | > 100 | > 100 | > 100 | > 100 | 18.5 | > 100 | > 100 | > 100 |  |  |  |  |  | 
CCSC1=N/C(=C\c2ccco2)C(NN)=N1 | > 50 | > 50 | > 50 | > 50 | > 50 | > 50 | > 50 | > 50 |  | > 50 |  | > 50 | > 50 | > 50 | > 50 | > 50 | > 50 | 
NC1OC(COC(=O)c2ccccc2)C(O)C(OC(=O)c2ccccc2)C1OC(=O)c1ccccc1 (centres undefined) | 47.2 |  | 54 | 31.3 | > 100 |  | 27.9 |  |  |  |  | 33.6 | 46.5 | > 100 | > 100 | 34.2 | 48.1 | 68.2
O=C1CCCC2=C1CC1=C(CCCC1=O)N2c1ccccc1C(=O)O |  | > 100 | > 100 | > 100 | > 100 | > 100 | > 100 | > 100 | > 100 | > 100 | > 100 |  |  |  | > 100 | > 100 | > 100 | > 100
CC1(C)Oc2ccc3c(=O)c(-c4ccccc4)c(-c4ccccc4)oc3c2C1C(=O)O (centres undefined) | > 100 | > 100 | > 100 | > 100 | > 100 |  |  |  | > 100 | > 100 |  | > 100 | > 100 | > 100 | > 100 | > 100 | > 100 | > 100
CC(C)N(C(=O)C1(C)CC1)C(C)C | > 100 | > 100 | > 100 | > 100 | > 100 | > 100 |  | > 100 | > 100 | > 100 |  | > 100 |  |  | > 100 | > 100 | > 100 | 
Cc1ccc2[nH]c3c(C)c4c(c(C)c3c2c1)CN(C)C=C4 | 8 | > 38.9 | > 40.6 | 12.9 | 7.04 | 2.4 | 12 | 23.5 | 3.52 | 1.62 | > 36.8 | 3.73 |  |  | 28.2 | 1.09 | 9.41 | 
O=c1c(-c2ccccc2)c2oc(c1-c1ccccc1)CS(=O)(=O)CCC2 | > 100 | > 100 | > 100 | 29.5 | > 100 | > 100 | > 100 | > 100 |  | 42.4 | > 100 | > 100 |  |  | 32.9 |  |  | 
COc1ccc(/C=C/C(=O)C(C)(C)CN2CCCCC2)cc1 | 46.2 | 65.2 | 47.9 | 38 | 61.7 | 55.7 | 43.3 | 37.9 | 33.7 | 38.1 |  | 97.5 |  |  | 34.3 | 30 | > 100 | 
CC(=O)NC(CCCCN(Cc1ccccc1)C(=O)NCCCl)C(=O)NCc1ccccc1 (centres undefined) | > 100 | > 100 | > 100 |  |  | > 100 | > 100 | > 100 | > 100 | > 100 | > 100 | > 100 |  |  | > 100 | > 100 |  | 
COC(=O)C(Cc1ccccc1)NC(=O)C(CCC(=O)OCc1ccccc1)NC(=O)OC(C)(C)C (centres undefined) | > 100 | > 100 | > 100 | > 100 | > 100 | > 100 | > 100 | > 100 | > 100 | > 100 | > 100 | > 100 |  | > 100 | > 100 | > 100 | > 100 | > 100
O=C(CSc1nnc(Cc2ccccc2)o1)Nc1cccc(Cl)c1 | > 100 | > 100 | > 100 | > 100 | > 100 | > 100 | > 100 | > 100 | > 100 | > 100 |  | > 100 |  |  | > 100 | > 100 | > 100 | 
CC1=[N+]([O-])C(C)(C)N(N=O)C1(C)C | > 10 | > 10 | > 10 | > 10 |  | > 10 | > 10 | > 10 | > 10 |  |  | > 10 | > 10 | > 10 | > 10 | > 10 | > 10 | > 10
COc1ccc2c(c1)CCN=C2Cc1ccccc1CCCl | 88.9 | > 100 | > 100 | 71.7 | > 100 | 74.6 | 38.8 | 48.6 | 42.1 | 45.8 | > 100 | > 100 |  | > 100 | > 100 | > 100 | > 100 | > 100
CC1(C)O[C@H]([C@H](O)c2nnc3ccc(Cl)nn23)[C@@H]([C@H]2COC(C)(C)O2)O1 | > 100 |  | > 100 | > 100 | > 100 | > 100 | > 100 | > 100 | > 100 | > 100 |  | > 100 | > 100 | > 100 | > 100 | > 100 | > 100 | > 100
COc1ccc(/C=N/N=C(\N)NO)c(Cl)c1O | > 100 | > 100 | > 100 | > 100 | > 100 | > 100 |  |  | 40.4 | 46.5 |  | 22.4 |  |  | > 100 | > 100 | 6.86 | 
